The record followed here is patent US6521593B1, “Methods for inhibiting brain tumor growth” (Childrens Hospital Los Angeles, priority 1999, dated 2003).

Each structure is given as a SMILES string.

Experiment [1] has as its system human brain endothelial cells (HBEC). Nature of the experiment: Vitronectin migration (Boyden chamber), HBEC. In kind it is cell-based. The note with it: test substance 20 μg/ml, 4 hrs. As to the method:
Migration: Transwell polycarbonate filters (8 μm pore size) were incubated for 30 min. at 37° C. with vitronectin in PBS (1 μg/ml on the upper side and 10 μg on the bottom side), blocked for 30 min. with 1% heat denatured BSA and washed with PBS. Test cells (5×10^5/well) were added in adhesion buffer containing the test substances indicated (20 μg/ml) and incubated for 4 hrs at 37° C. with the lower chamber containing adhesion buffer. Cells in the upper chamber were removed with a cotton swab and cells on the bottom part of the filter were fixed and stained with crystal violet and the number of migrated cells determined by counting.
To address whether αvβ3 and αvβ5 modulate migration on vitronectin, independent of adhestion, we tested the same cells on vitronectin-coated membranes in Boyden chambers while in the presence of blocking antibodies or cRGD. […] Since LM-609, in the absence of P1-F6, was incapable of blocking adhesion, this anti-migratory effect must be mediated through a distinct pathway which is independent of forces responsible for adhesion.

The subject of experiment [2] is DAOY human brain tumor cells. Briefly: CAM assay: angiogenesis and growth of DAOY tumors on chick chorioallantoic membrane. Type of experiment: in vivo. The note with it: 100 μg into a CAM vein, 6 days. As to the method:
CAM assay: Egg supplier and preparation have been described earlier (23). Tumor cells were plated in 50 μl PBS at 4×10^6 cells/egg for DAOY and 3.5×10^6 cells/egg for U87MG. Cells were grown to tumors for 7 days, then harvested under sterile conditions, trimmed to similar sizes and […] onto the CAM of 10-day-old embryos. […] Tumors were photographed in situ after 7 days of growth, then harvested, weighed and fixed in 4% buffered formalin and embedded in paraffin. After serial sectioning, slides were stained with hematoxilin and eosin.
To assess the effect of αv antagonism on brain tumor associated angiogenesis, DAOY and U87MG human brain tumor cells were grown on chick chorioallantoic membranes (CAMs). The tumors were allowed to grow for 7 days before they were removed and reimplanted onto fresh CAMs. 24 hours after transfer, 100 μg of either the active cRGD peptide or control peptide (cRAD) was injected into a CAM vein. Tumors were grown for an additional 6 days and then weighed and analyzed for vascularization. […] In contrast to control tumors, which increased 80% in weight, αv-antagonist treated tumors decreased 30% in weight (FIG. 1b).
FIGS. 1a and 1b show the inhibition of angiogenesis (a) and tumor growth on the CAM (b) by an αv-antagonist. Brain tumors grown on CAMs were harvested and cut to similar sizes and placed on fresh CAMs of 10-day-old chicken eggs. The following day, 100 μg of active αv-inhibitor or control peptide were injected into the chicken veins and grown for another 6 days. […] Tumors placed on the CAM were weighed at the beginning and end of the experiment (b). The weight of the tumors treated with the control peptide increased by 80% for both tumor types (left, n=8), whereas it decreased by about 30% when the active peptide was administered (right, n=8).

The test system of experiment [3] is DAOY cells. Briefly: Orthotopic brain tumor model, DAOY cells injected intracerebrally in nu/nu mice. The note with it: for Tumor size (mm) Brain: nu/nu mice, 100 μg/mouse daily i.p. from day 7, 4 weeks total tumor growth.
Experimental: Tumor cells (10^6/10 μl PBS) were injected intracerebrally at the coordinates mentioned. […] The animals were then sacrificed by CO2 anesthesia, the brains removed and either snap frozen in liquid nitrogen or fixed in buffered formalin, embedded in paraffin and the cut sections stained with Hematoxylin-Eosin.
DAOY and U87MG cells (10^6 cells/mouse) were stereotactically injected into the right frontal cortex of nu/nu mice in order to establish a system that recapitulates the brain microenvironment. […] For each time, point n=5 or 6.
Additional animals were tested for survival. Survival was measured as the time point in which mice required sacrifice, due to a moribund state. […] N for DAOY and U87MG control is 16 mice each and 32 mice for treated DAOY and 24 for treated U87MG.

Consider `CC(C)[C@H]1C(=O)N[C@@H](CCCN=C(N)N)C(=O)NCC(=O)N[C@@H](CC(=O)O)C(=O)N[C@H](Cc2ccccc2)C(=O)N1C` [EMD 121974, cyclo(Arg-Gly-Asp-D-Phe-[N-Me]-Val)], for which the migration on vitronectin result in experiment [1] is recorded as “significantly inhibited”. Further, the “tumor-associated angiogenesis (stereomicroscope)” value in experiment [2] was “significant suppression of angiogenesis”. Further, the “decrease of tumor weight” value in experiment [2] (n=8, listed as active peptide) was “about 30%”; in experiment [2] (n=8, listed as αv-antagonist), 30%. Besides, the “Mouse weight (gr)” value in experiment [3] (100 μg/mouse daily i.p.) is on record as 21 ± 0.89 gr. Besides, in experiment [3] (100 μg/mouse daily i.p.), the “mean time to the onset of neurologic symptoms” value is recorded as “no evidence of neurological symptoms at any time”. The compound further showed a mouse weight in experiment [3] (100 μg/mouse daily i.p., baseline 21 g) of 21 g. Also, the “survival (time point at which mice required sacrifice, moribund state)” value in experiment [3] (i.p. 100 μg/mouse/day from day 7) is recorded as at least 24 weeks. Besides, the “Tumor size (mm) Brain” value is “absence or microscopic residual disease” in experiment [3] (listed as active peptide) and “no tumor or only scant residual tumor cells” in experiment [3] (listed as αv-antagonist). Moreover, the “size of residual tumor foci” value in experiment [3] (treated group) is recorded as “smaller than 1 mm^3”.
